Entries after “also recorded” stand apart in the source; their conditions may differ.

Holding throughout (format): biochemical
The target in experiment [1] is T1, cathepsin H (Homo sapiens, UniProt P09668).
T1 construct: purchased R&D Systems 75116-CY-010
Kind of experiment: Specificity of inhibitors: cathepsin H (Arg-AMC substrate). How it is done: (§1) Specificity of inhibitors for other cysteine cathepsin proteases. The effects of Z-Arg-Lys-AOMK and Z-Glu-Lys-AOMK on cathepsin V, L, K, S, X, H and C activities were assessed. IC50 values were calculated at pH 4.6 and pH 7.2 conditions, consisting of 40 mM citrate phosphate, 1 mM EDTA, 100 mM NaCl, and 5 mM DTT. The inhibitor concentrations ranged from 16.38 μM to 256 nM with 2-fold serial dilutions. […] Cathepsin V (0.04 ng/μL), cathepsin L (0.03 ng/μL), cathepsin K (0.10 ng/μL), cathepsin S (0.20 ng/uL) were assayed with 40 μM Z-Phe-Arg-AMC. Cathepsin X (0.20 ng/uL), cathepsin C (0.51 ng/uL) and cathepsin H (0.1 ng/μL) were assayed with 40 μM of MCA-Arg-Pro-Pro-Gly-Phe-Ser-Ala-Phe-Lys(Dnp)OH (SEQ ID NO: 2), Gly-Arg-AMC, and Arg-AMC, respectively. Activation of pro-cathepsin H to cathepsin H was conducted by incubation of cathepsin H (4.4 ng/μL) with cathepsin L (1.1 ng/μL) at RT for 2 hrs in activation buffer (20 mM citrate phosphate pH 6.0, 100 mM NaCl, and 5 mM DTT). Cathepsin C (13.78 ng/μL) was activated by incubation with cathepsin L (3.4 ng/μL) at RT for one hr in activation buffer (20 mM citrate phosphate, pH 6.0, 100 mM NaCl, 5 mM DTT). […] For all assays containing peptide-AMC substrates the fluorescent microplate reader settings were the same as outlined above for cathepsin B. For the cathepsin X assay, the plate reader was set to excitation 320 nm, emission 400 nm, gain 105, top optics and read height 1 mm. To convert RFU/s to picomol/min, 10 μM to 0.005 μM (2-fold serial dilution) of MCA-Arg-Pro-Pro-Gly-Phe-Ser-Ala-Phe-Lys(Dnp)OH (SEQ ID NO: 2) was fully hydrolyzed with excess cathepsin X and a standard curve was generated using the total fluorescence values calculated at each concentration.

Experiment [2] addresses T2, cathepsin K (Homo sapiens, UniProt P43235).
T2 construct: purchased Abcam ab157067
T2 sequence (P43235 115-329): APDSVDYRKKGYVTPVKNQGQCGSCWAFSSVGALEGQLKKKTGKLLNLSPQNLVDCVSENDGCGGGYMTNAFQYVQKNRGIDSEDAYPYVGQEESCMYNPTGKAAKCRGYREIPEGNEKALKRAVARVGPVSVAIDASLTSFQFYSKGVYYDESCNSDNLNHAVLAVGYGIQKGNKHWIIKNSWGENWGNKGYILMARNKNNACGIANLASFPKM
The experiment in a line: Specificity of inhibitors: cathepsin K (Z-Phe-Arg-AMC substrate). How it is done:
as §1

Experiment [3] has as its target T3, cathepsin S (Homo sapiens, UniProt P25774).
T3 construct: purchased R&D Systems 1183-CY-010
The experiment in a line: Specificity of inhibitors: cathepsin S (Z-Phe-Arg-AMC substrate). As for the experimental part: as §1

Experiment [4] deals with T4, cathepsin V (Homo sapiens, UniProt O60911).
T4 construct: purchased R&D Systems 1080-CY-010
Kind of experiment: Specificity of inhibitors: cathepsin V (Z-Phe-Arg-AMC substrate). As for the experimental part:
as §1

Experiment [5] addresses T5, cathepsin B (Homo sapiens, UniProt P07858).
T5 construct: purchased R&D Systems 953-CY-010
Kind of experiment: Inhibition of peptide library cleavages characterized by MSP-MS. To be noted: 64 nM inhibitor. As for the experimental part: Cathepsin B cleavage site analysis by multiplex substrate profiling by mass spectrometry (MSP-MS). Cathepsin B activity (activated) was titrated with E64c to calculate the concentration of active cathepsin B. For MSP-MS assays, cathepsin B (0.1 ng/μL, activated) was incubated with a peptide library of 228 14-mer peptides, each at 0.5 μM peptide, in buffer consisting of 50 mM citrate phosphate of pH 7.2 or pH 4.6, 1 mM EDTA, 100 mM NaCl and 4 mM DTT (total volume of 46 μL). After incubation for […] at 25° C., 20 μL aliquots were removed and combined with 80 μL of 8 M urea. An inactivated cathepsin B control consisted of cathepsin B in assay buffer combined with 8 M urea for 60 minutes at 25° C. for denaturation, followed by addition of the peptide library. After incubation, samples were acidified by addition of 40 μL of 2% FA, desalted using C18 LTS Tips (Rainin), evaporated to dryness in a vacuum centrifuge, and stored at −70° C. Samples were resuspended in 20 μL of 0.1% FA (solvent A) and 1 μL was used for LC-MS/MS analysis. All MSP-MS conditions were conducted in quadruplicate assays.
Inhibitor inhibition of peptide cleavages characterized by MSP-MS. […]

Experiment [6] addresses T5, cathepsin B. Kind of experiment: Irreversible mechanism of inhibitors (pre-incubation, dilution, activity). To be noted: pH 7.2. How it is done: Irreversible mechanism of inhibitors. The irreversible or reversible mechanism of cathepsin B inhibition was assessed for Z-Arg-Lys-AOMK and Z-Glu-Lys-AOMK inhibitors. At pH 7.2, cathepsin B was incubated with 190 nM Z-Arg-Lys-AOMK and 4.99 μM Z-Glu-Lys-AOMK for 15 min in pH 7.2 assay buffer and the assay was performed as described above for pH 4.6. Proteolytic activity was monitored for 2 hr. At pH 4.6, cathepsin B (activated, 3.7 ng/μL) was incubated with 4.24 μM Z-Arg-Lys-AOMK and 3.48 μM Z-Glu-Lys-AOMK for 15 min in 40 mM citrate phosphate pH 4.6, 1 mM EDTA, 100 mM NaCl, and 5 mM DTT; a vehicle control contained 2.5% DMSO. Each reaction was then diluted 100-fold in assay buffer such that the final assay composition was 0.04 ng/μL cathepsin B, 40 μM Z-Phe-Arg-AMC, and an inhibitor concentration of 1/10th the IC50 value.

T4 sequence (O60911 114-334): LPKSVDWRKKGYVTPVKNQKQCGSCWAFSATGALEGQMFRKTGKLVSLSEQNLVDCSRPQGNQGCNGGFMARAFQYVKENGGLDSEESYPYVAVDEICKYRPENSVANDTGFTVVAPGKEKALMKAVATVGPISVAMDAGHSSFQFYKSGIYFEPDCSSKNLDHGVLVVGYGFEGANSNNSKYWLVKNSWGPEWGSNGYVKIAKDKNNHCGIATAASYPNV
T3 sequence (P25774 115-331): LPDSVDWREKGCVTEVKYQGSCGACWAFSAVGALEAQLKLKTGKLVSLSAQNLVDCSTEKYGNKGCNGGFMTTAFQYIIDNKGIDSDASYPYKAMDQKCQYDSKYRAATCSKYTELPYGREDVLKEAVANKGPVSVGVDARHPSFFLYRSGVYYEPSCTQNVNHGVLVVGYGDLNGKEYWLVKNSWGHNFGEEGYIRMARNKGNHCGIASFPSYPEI
T1 sequence (P09668 116-335 limits assumed, other chains not shown): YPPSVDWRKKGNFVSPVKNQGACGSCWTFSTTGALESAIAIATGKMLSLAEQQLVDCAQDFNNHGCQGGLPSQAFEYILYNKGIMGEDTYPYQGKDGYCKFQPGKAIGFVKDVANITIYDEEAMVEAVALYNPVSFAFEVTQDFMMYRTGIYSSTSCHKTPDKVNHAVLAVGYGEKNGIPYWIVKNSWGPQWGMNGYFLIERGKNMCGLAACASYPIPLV

With `Cc1cccc(C)c1C(=O)OCC(=O)C(CCCCN)NC(=O)C(CCCNC(=N)N)NC(=O)OCc1ccccc1` (stereo not drawn) [Z-Arg-Lys-AOMK], the concentration for half-maximal inhibition (IC50) (as a rule, the concentration that gives 50% inhibition) is > 16 µM in experiment [1] (cathepsin H, pH 4.6); > 16 µM in experiment [1] (cathepsin H, pH 7.2); > 16 µM in experiment [2] (cathepsin K, pH 4.6); > 16 µM in experiment [2] (cathepsin K, pH 7.2); > 16 µM in experiment [3] (cathepsin S, pH 4.6); > 16 µM in experiment [4] (cathepsin V, pH 4.6). Moreover, inhibition in experiment [4] (cathepsin V, pH 7.2) was half-maximal at 0.44 µM (IC50). The inhibition – broadly, the change of the read-out against control, counted positive when it falls – at 16 µM in experiment [1] (cathepsin H, pH 7.2, 16,000 nM inhibitor) was 29%; in experiment [2] (cathepsin K, pH 7.2, 16,000 nM inhibitor) it was 31%; in experiment [3] (cathepsin S, pH 4.6, 16,000 nM inhibitor), 13%; in experiment [4] (cathepsin V, pH 4.6, 16,000 nM inhibitor) it was 63%. Further, the “inhibition of cathepsin H” value is given as “no inhibition” in experiment [1] (pH 4.6, inhibitor at 16 μM) and “minimally inhibited” in experiment [1] (pH 7.2, inhibitor at 16 μM). Further, the “inhibition of cathepsin K” value in experiment [2] (pH 4.6, inhibitor at 16 μM) was “no inhibition”; in experiment [2] (pH 7.2, inhibitor at 16 μM), “minimally inhibited”. The “inhibition of cathepsin S” value in experiment [3] (pH 4.6, inhibitor at 16 μM) is reported as “minimal inhibition”. Further, in experiment [3] (pH 7.2, from IC50), the “fold more potent for cathepsin B than cathepsin S” value is recorded as 110 fold. Also, the “inhibition of cathepsin V” value in experiment [4] (pH 4.6, inhibitor at 16 μM) was “minimal inhibition”. For the same molecule, the “fold more potent for cathepsin B than cathepsin V” value in experiment [4] (pH 7.2, from IC50) was found to be 22 fold. For the same molecule, the “inhibition of cathepsin B cleavage of peptide library substrates” value is listed as “does not inhibit; also recorded: did not inhibit” in experiment [5] (pH 4.6) and “inhibits; also recorded: completely inhibited” in experiment [5] (pH 7.2, 1 hr incubation). In experiment [6], the “cathepsin B activity after pre-incubation and dilution of inhibitor” value was “no cathepsin B activity”.
